These results are taken from patent US12011444B2, “N-substituted indole derivatives as PGE2 receptor modulators” (Idorsia Pharmaceuticals Ltd, priority 2015, dated 2024).

For orientation: IC50 means the concentration needed to halve the response being measured. The low end stands for higher potency, the high end for lower potency.

For one experiment, the target named is PTGER2 (EP2) (Homo sapiens (Human), UniProt P43116). The experiment can be described thus: hEP2 b-arrestin assay (PathHunter HEK 293 PTGER2 b-arrestin cells). The format is cell-based. Particulars: hEP2 b-arrestin assay (values without asterisk). The gist of the method: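 HEK293 cells expressing ProLink-tagged EP2 and EA-fused β-arrestin 2 (enzyme fragment complementation) were seeded 24 h, pre-incubated with compound 15 min at 37 °C, then stimulated with 5 μM PGE2 (final) for 120 min.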

A further experiment addresses PTRGER4 (EP4) (Homo sapiens (Human), UniProt P35408). Briefly: hEP4 b-arrestin assay (PathHunter HEK 293 PTGER4 b-arrestin cells). In kind it is cell-based. Particulars: hEP4 b-arrestin assay (values without asterisk). The method, boiled down: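 Stably transfected HEK293 cells carrying EP4–ProLink and β-arrestin 2–EA (β-gal fragment complementation), pre-incubated with compound 15 min at 37 °C, then stimulated with PGE2 (20 nM final) for 120 min at 37 °C. Chemiluminescence read after 1 h detection reagent at room temperature; activity per concentration expressed as percent of DMSO control.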

Chain of PTRGER4 (EP4) (P35408 whole entry, looked up, the tested form may be a part): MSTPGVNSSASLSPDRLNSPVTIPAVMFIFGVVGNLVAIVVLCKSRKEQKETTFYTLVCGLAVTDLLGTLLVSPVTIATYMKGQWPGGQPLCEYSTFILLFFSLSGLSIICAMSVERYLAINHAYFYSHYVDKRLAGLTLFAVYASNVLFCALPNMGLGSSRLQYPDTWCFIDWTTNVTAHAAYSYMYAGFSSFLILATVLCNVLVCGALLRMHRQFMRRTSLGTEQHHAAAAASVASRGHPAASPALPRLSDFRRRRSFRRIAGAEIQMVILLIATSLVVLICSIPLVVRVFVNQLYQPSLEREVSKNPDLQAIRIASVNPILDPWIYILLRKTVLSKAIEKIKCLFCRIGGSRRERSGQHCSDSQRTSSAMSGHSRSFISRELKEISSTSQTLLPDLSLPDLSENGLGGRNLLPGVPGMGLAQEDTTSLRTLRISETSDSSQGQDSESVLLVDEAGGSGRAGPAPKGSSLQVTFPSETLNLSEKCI
Chain of PTGER2 (EP2) (P43116 whole entry, the tested form may be a part): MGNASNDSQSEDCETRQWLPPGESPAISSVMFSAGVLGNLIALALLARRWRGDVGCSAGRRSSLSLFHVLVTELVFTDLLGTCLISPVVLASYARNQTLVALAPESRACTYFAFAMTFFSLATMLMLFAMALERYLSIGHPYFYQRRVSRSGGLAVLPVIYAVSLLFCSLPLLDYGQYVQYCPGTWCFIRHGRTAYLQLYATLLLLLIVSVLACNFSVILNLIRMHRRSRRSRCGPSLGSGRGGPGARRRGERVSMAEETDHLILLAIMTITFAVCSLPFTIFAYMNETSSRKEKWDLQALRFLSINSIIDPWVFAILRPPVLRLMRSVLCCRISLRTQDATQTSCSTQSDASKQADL

As to `COc1ccc(F)c2c1cc(C#N)n2CCNc1cc(-c2ccc(OCC(=O)O)c(Cl)c2)ncn1` [Example 841, (2-Chloro-4-{6-[2-(2-cyano-7-fluoro-4-methoxy-indol-1-yl)-ethylamino]-pyrimidin-4-yl}-phenoxy)-acetic acid], the 50% inhibitory concentration (IC50) against PTGER2 (EP2) was found to be 0.025 µM; against PTRGER4 (EP4), 0.061 µM.
`CCOc1cc(-c2cc(NCCn3c(C)cc4c(OC)ccc(F)c43)ncn2)ccc1-c1ncco1` [Example 842, [6-(3-Ethoxy-4-oxazol-2-yl-phenyl)-pyrimidin-4-yl]-[2-(7-fluoro-4-methoxy-2-methyl-indol-1-yl)-ethyl]-amine]: the results for the concentration for half-maximal inhibition (IC50) against PTGER2 (EP2) and at PTRGER4 (EP4) were 0.013 µM and 0.094 µM, respectively.
Taken in the same sequence, the figures for `COc1ccc(F)c2c1cc(C)n2CCNc1cc(-c2ccc(C(=O)O)c(OCC(F)(F)F)c2)ncn1` [Example 844, 4-{6-[2-(7-Fluoro-4-methoxy-2-methyl-indol-1-yl)-ethylamino]-pyrimidin-4-yl}-2-(2,2,2-trifluoro-ethoxy)-benzoic acid] were 0.005 µM and 0.142 µM.
Consider `COc1cc(F)cc2c1cc(C)n2CCNc1cc(-c2ccc(C(=O)O)c(OCC(F)(F)F)c2)ncn1` [Example 845, 4-{6-[2-(6-Fluoro-4-methoxy-2-methyl-indol-1-yl)-ethylamino]-pyrimidin-4-yl}-2-(2,2,2-trifluoro-ethoxy)-benzoic acid], for which the figures for the half-inhibitory concentration (IC50) against PTGER2 (EP2) and against PTRGER4 (EP4) were 0.007 µM and 0.215 µM, respectively.
As to `N#Cc1c(F)c2ccccc2n1CCNc1cc(-c2cc(F)c(C(=O)O)s2)ncn1` [Example 846, 5-{6-[2-(2-Cyano-3-fluoro-indol-1-yl)-ethylamino]-pyrimidin-4-yl}-3-fluoro-thiophene-2-carboxylic acid], the IC50 is 0.024 µM against PTGER2 (EP2) and 0.221 µM against PTRGER4 (EP4).
Take `CCOc1cc(-c2cc(NCCn3c(C)cc4c(OC)ccc(F)c43)ncn2)sc1CC(=O)O` [Example 847, (3-Ethoxy-5-{6-[2-(7-fluoro-4-methoxy-2-methyl-indol-1-yl)-ethylamino]-pyrimidin-4-yl}-thiophen-2-yl)-acetic acid]: the half-inhibitory concentration (IC50) at PTGER2 (EP2) stood at 0.035 µM; against PTRGER4 (EP4), 0.309 µM.
For the compound `CCOc1cc(-c2cc(NCCn3c(C)cc4c(OC)ccc(F)c43)ncn2)ccc1-c1nc(C)c(C)o1` [Example 848, {6-[4-(4,5-Dimethyl-oxazol-2-yl)-3-ethoxy-phenyl]-pyrimidin-4-yl}-[2-(7-fluoro-4-methoxy-2-methyl-indol-1-yl)-ethyl]-amine], the IC50 worked out at 0.02 µM at PTGER2 (EP2) and 0.321 µM against PTRGER4 (EP4).
On to `CCOc1cc(-c2cc(NCCn3c(C)cc4c(OC)ccc(F)c43)ncn2)ccc1-c1nc2ccccc2o1` [Example 849, [6-(4-Benzooxazol-2-yl-3-ethoxy-phenyl)-pyrimidin-4-yl]-[2-(7-fluoro-4-methoxy-2-methyl-indol-1-yl)-ethyl]-amine], for which the half-inhibitory concentration (IC50) against PTGER2 (EP2) stood at 0.039 µM; at PTRGER4 (EP4) it was 0.589 µM.
For the compound `N#Cc1cc2c(Cl)cc(Cl)cc2n1CCNc1cc(-c2cc(F)c(C(=O)O)s2)ncn1` [Example 850, 5-{6-[2-(4,6-Dichloro-2-cyano-indol-1-yl)-ethylamino]-pyrimidin-4-yl}-3-fluoro-thiophene-2-carboxylic acid], the IC50 on PTGER2 (EP2) was found to be 0.002 µM; against PTRGER4 (EP4) it was 0.079 µM.
As for `Cc1ccc(F)c2c1cc(C#N)n2CCNc1cc(-c2cc(F)c(C(=O)O)s2)ncn1` [Example 851, 5-{6-[2-(2-Cyano-7-fluoro-4-methyl-indol-1-yl)-ethylamino]-pyrimidin-4-yl}-3-fluoro-thiophene-2-carboxylic acid], the IC50 was 0.018 µM against PTGER2 (EP2) and 0.028 µM against PTRGER4 (EP4).
Taken in the same sequence, the figures for `COc1ccc(F)c2c1cc(C#N)n2CCNc1cc(-c2ccc(-c3cc(O)no3)cc2)ncn1` [Example 852, 7-Fluoro-1-(2-{6-[4-(3-hydroxy-isoxazol-5-yl)-phenyl]-pyrimidin-4-ylamino}-ethyl)-4-methoxy-1H-indole-2-carbonitrile] were 0.012 µM and 0.022 µM.
